# Source: US6262108A, “Medicinal use of cromoglycic acid compounds” (Kyoto Pharmaceutical Industries, Ltd., priority 1997, dated 2001)
# System: Type IV allergic dermatitis
# Assay: Type IV allergic dermatitis (picryl chloride) auricle swelling
# Assay type: in vivo, male ICR mice
# Description: Male 6-week-old ICR mice (Clea Japan, Inc.) were divided into two groups of control group and administration group containing 8-9 mice each. A 0.5% methylcellulose solution (10 ml/kg) was forcefully administered orally to the control group and diethyl acetoacetylcromoglycate (100 mg/kg) was forcefully administered orally to the administration group twice a day for 14 days for each group. After the initial administration at day 8 of the administration, pentobarbital sodium (55 mg/kg) was intraperitoneally administered to each mouse and the abdomen was shaved. 5% Picryl chloride (50 μl) dissolved in acetone-olive oil (mixing ratio, 1:4) was applied to the shaved portion (diameter about 2 cm). After the initial administration at day 5 after the application (day 12 of administration), all mice were anesthetized with ether and the thickness of both auricles was measured with a dial thickness gauge (Mitutoyo Co.). […] After 48 hours from this antigen challenge, the thickness of both auricles was measured with a dial thickness gauge under ether anesthesia.
# The difference between the thickness of the auricle applied with the solvent and the thickness of the auricle applied with the antigen was measured for each mouse.
smiles,measurement,setting,value
"CCOC(=O)c1cc(=O)c2c(OCC(COc3cccc4oc(C(=O)OCC)cc(=O)c34)OC(=O)CC(C)=O)cccc2o1 [Example 1, Diethyl Acetoacetylcromoglycate]",Increase in thickness of auricle after application of antigen,"100 mg/kg orally twice a day for 14 days, 48 hr after applying 0.5% picryl chloride solution, mean ± standard error (n = 8-9), control 0.045 ± 0.003, p < 0.01",0.031 ± 0.003 mm
same,effect on swelling of the auricle (in words),"100 mg/kg orally twice a day, 48 hours after picryl chloride challenge, t-test with control group",significant inhibitory action on the swelling of the auricle
